Consider 5 compounds from US20230286970A1, “NOVEL OXADIAZOLE-BASED SELECTIVE HDAC6 INHIBITORS” (ITALFARMACO S.P.A., priority 2020, published 2023).

The target of one series is recombinant human HDAC6 (Homo sapiens (Human), UniProt Q9UBN7). Kind of series: Enzymatic screening, HDAC6 inhibition (fluorogenic FdL_G substrate). It is filed as biochemical. The procedure, abridged:
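Enzyme was preincubated with compound (8 doses, triplicate, 1% DMSO) in 25 mM Tris-HCl pH 8, 130 mM NaCl, 0.05% Tween-20, 10% glycerol, with BSA. A FLUOR DE LYS-Green substrate was then added, and fluorescence was read after developer plus 2 μM TSA.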

The target in another series is recombinant human HDAC1 (Homo sapiens (Human), UniProt Q13547). Kind of series: Enzymatic screening, HDAC1 inhibition (fluorogenic FdL_G substrate). Format: biochemical. An outline of the steps: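 Recombinant human HDAC1 inhibition was measured fluorometrically using the FLUOR DE LYS-Green (FdL_G) substrate. Compounds at 8 doses (1% DMSO final) in Tris-HCl pH 8 buffer with NaCl, Tween-20 and glycerol were preincubated in triplicate with enzyme and 1 mg/mL BSA, then given substrate. Developer I plus 2 μM TSA was added, and fluorescence read after 25 minutes in the dark.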
recombinant human HDAC1, sequence (Q13547 whole entry): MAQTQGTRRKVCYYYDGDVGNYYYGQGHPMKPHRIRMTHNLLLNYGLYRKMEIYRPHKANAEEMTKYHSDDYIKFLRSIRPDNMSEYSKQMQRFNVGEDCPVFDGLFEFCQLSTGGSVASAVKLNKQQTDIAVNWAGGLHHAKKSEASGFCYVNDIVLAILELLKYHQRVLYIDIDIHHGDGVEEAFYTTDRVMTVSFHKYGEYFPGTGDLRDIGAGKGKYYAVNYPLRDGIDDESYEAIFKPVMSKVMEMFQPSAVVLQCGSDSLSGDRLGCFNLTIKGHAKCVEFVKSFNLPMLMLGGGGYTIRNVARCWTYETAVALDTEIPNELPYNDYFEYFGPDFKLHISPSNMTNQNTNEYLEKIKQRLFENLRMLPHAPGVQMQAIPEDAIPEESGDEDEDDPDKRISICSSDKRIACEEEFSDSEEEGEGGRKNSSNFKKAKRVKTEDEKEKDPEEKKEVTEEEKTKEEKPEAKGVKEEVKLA

The target of a further series is HDAC2 (Homo sapiens (Human), UniProt Q92769). In words: Enzymatic screening, HDAC2 inhibition. Format: biochemical. The procedure: (§1) For each test compound, 100× concentrated DMSO solutions at 8 doses were prepared and then diluted in assay buffer (25 mM Tris-HCl, pH 8, 130 mM NaCl, 0.05% Tween-20, 10% Glycerol) to obtain 5× concentrated solutions in relation to the final concentrations (typical final concentration range—6.4-200000 nM or 0.18-50000 nM, final DMSO content—1%). Then 10 μL solution of each test compound concentration were placed on a 96-well plate in triplicate and 15 μL of 3.33× concentrated enzyme solution in the assay buffer containing 3.33× concentrated BSA (final BSA concentration—2 mg/mL for HDAC4, HDAC5 and HDAC9 or 1 mg/mL for other isoforms) and in the case of HDAC6-3.33× concentrated TCEP (final TCEP concentration—200 μM) were added to each well. After a period of preincubation (incubation times and temperatures vary for different isoforms and are shown in table 1) 25 μL of solution containing the substrate were added. As substrate, FLUOR DE LYS® deacetylase substrate (Enzo Life Sciences, cat: BML-KI104, FdL), FLUOR DE LYS®-Green substrate (Enzo Life Sciences, cat: BML-KI572, FdL_G) or Boc-Lys(Tfa)-AMC (Bachem, cat: 4060676.005, Tfal)—2× concentrated solution in assay buffer were used. Following a reaction period (reaction times and temperatures vary for different isoforms and are reported in Table 1), 50 μL of the development solution consisting of concentrate FLUOR DE LYS® developer I (Enzo Life Sciences, ca: BML-KI105), diluted 200 times in buffer (50 mM Tris-HCl, pH 8, 137 mM NaCl, 2.7 mM KCl, 1 mM MgCl2) plus 2 μM TSA was added and, after 25 minutes at room temperature in the dark, using the Victor 1420 Multilabel Counter Perkin Elmer Wallac instrument, the fluorescence reading was carried out.

The target in a further series is HDAC3 (Homo sapiens (Human), UniProt O15379). In words: Enzymatic screening, HDAC3 inhibition. Format: biochemical. How it is done:
as §1

The target of a further series is HDAC4 (Homo sapiens (Human), UniProt P56524). In words: Enzymatic screening, HDAC4 inhibition. Format: biochemical. How it is done:
as §1

The next series has as its target HDAC5 (Homo sapiens (Human), UniProt Q9UQL6). Kind of series: Enzymatic screening, HDAC5 inhibition. Format: biochemical. How it is done:
as §1

The target of a further series is HDAC7 (Homo sapiens (Human), UniProt Q8WUI4). In words: Enzymatic screening, HDAC7 inhibition. It is filed as biochemical. How it is done:
as §1

The next series addresses HDAC8 (Homo sapiens (Human), UniProt Q9BY41). Kind of series: Enzymatic screening, HDAC8 inhibition. Format: biochemical. The procedure:
as §1

Another series deals with HDAC9 (Homo sapiens (Human), UniProt Q9UKV0). Kind of series: Enzymatic screening, HDAC9 inhibition. It is filed as biochemical. The procedure:
as §1

For the next series, the target named is HDAC10 (Homo sapiens (Human), UniProt Q969S8). Kind of series: Enzymatic screening, HDAC10 inhibition. It is filed as biochemical. How it is done: as §1
HDAC10, sequence (Q969S8 whole entry): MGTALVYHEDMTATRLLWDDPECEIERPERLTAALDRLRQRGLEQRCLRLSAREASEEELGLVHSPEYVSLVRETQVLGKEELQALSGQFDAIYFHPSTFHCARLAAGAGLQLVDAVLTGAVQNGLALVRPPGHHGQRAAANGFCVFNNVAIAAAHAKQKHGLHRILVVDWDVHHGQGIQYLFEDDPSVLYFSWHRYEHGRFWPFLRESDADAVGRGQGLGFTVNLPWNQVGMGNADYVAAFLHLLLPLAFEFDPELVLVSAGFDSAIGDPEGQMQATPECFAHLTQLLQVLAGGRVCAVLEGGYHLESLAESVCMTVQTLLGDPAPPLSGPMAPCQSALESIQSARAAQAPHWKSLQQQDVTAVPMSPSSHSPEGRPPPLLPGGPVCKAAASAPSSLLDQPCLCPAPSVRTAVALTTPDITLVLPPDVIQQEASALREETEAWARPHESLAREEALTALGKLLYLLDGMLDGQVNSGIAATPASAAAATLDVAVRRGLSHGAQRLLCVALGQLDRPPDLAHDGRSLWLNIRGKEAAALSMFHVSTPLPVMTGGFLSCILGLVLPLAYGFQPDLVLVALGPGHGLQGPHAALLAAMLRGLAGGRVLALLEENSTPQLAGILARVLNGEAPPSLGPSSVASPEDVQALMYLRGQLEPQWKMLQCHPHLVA
For the next series, the target named is HDAC11 (Homo sapiens (Human), UniProt Q96DB2). Kind of series: Enzymatic screening, HDAC11 inhibition. Format: biochemical. How it is done:
as §1

Series [1] concerns α-tubulin acetylation in 697 cell line. Kind of series: In vitro α-tubulin acetylation in 697 cell line (ELISA). Format: cell-based. Conditions: 16 hours, read-out: fold increase @ 1 uM TubAc (ratio of acetylated tubulin and total tubulin towards control). How it is done: The in vitro α-tubulin acetylation determination was evaluated on B 697 promyelocytic cell line.
The test molecules were diluted from 20 mM stock solution in DMSO with RPMI 10% FCS+0.01% DMSO medium at 20× concentration compared to the final concentration, added to the cells (15×10^6 cells in a total volume of 30 mL in RPMI medium 10% FCS+0.01% DMSO) to obtain the final concentrations of 1000, 333, 111, 37 nM and incubated at 37° C., 5% CO2 for 16 hours.
At the end of the incubation period, 5×10^6 cells were taken from each sample, centrifuged for 5 minutes at 1100 rpm and washed in 0.9% NaCl at 4° C. The resulting pellet was lysed by treating at 4° C. for 30 minutes with 150 μl of Complete Lysis-M buffer containing protease inhibitors (Complete Lysis-M Roche+Complete Tablets, Mini Easypack, cat: 4719956001) and phosphatase inhibitor cocktails (PhosStop Easypack, Roche, cat: 4906837001), then centrifuged 10 minutes at 14,000 rpm (20817×g). 0.3 μg of supernatant (total protein extract) were diluted in 100 μl of 1×PBS and immobilized in Maxisorp F96 NUN-IMMUNO Plate (Nunc MaxiSorp flat-bottom, Nunc, cat: 442404) at room temperature overnight. Plates were washed twice with Wash Buffer (PBS1×+0.005% tween 20) and saturated for 1 hour at room temperature with 300 μL of 1×PBS containing 10% FCS. After washing twice with Wash Buffer, the plates were incubated for two hours at room temperature in the presence of anti-acetylated-α-tubulin antibody (Monoclonal Anti-acetylated-tubulin clone 6-11B-1, mouse ascites fluid, Sigma, cat: T6793), 100 μl/well diluted 1:1000 in 1×PBS containing 10% FCS) or with total anti-α-tubulin antibody (Monoclonal Anti-alpha-tubulin produced in mouse, Sigma, cat: T6074). Following washing of the pates 5 times with Wash Buffer the secondary antibody conjugated with the enzyme HRP (Goat anti-Mouse IgG, IgM, IgA (H+L), Thermo Fisher Scientific, cat: A10668), diluted 1:1000 in 1×PBS+10% FBS was added at the volume of 100 μl/well.
After washing 4 times, 100 μl/well of TMB substrate kit was added for 10 minutes at room temperature in the dark. The reaction was stopped by adding 50 μl of 2N H2SO4. The plates were read at Multiskan Spectrum spectrophotometer at a wavelength of 450 nm.
The degree of acetylation was calculated by dividing the absorbance obtained for acetylated α-tubulin by the absorbance of total tubulin.
The results of tubulin acetylation, expressed as fold increase of ratio of acetylated α-tubulin/total α-tubulin, of each sample relative to the control sample (untreated) are summarized in table 6.

Another series can be described thus: Stability in rat plasma. The note with it: after 4 hours, 37° C.
The nature of series [2]: Stability in human plasma. The note with it: after 4 hours, 37° C.
Series [3] can be described thus: Stability to Phase I metabolism in rat S9 liver fraction. The note with it: after 90 minutes, 37° C.
Series [4] can be described thus: Stability to Phase I metabolism in human S9 liver fraction. The note with it: after 90 minutes, 37° C.
Method: Test compounds were incubated in rat and human liver S9 fraction at 37° C. up to 90 minutes in order to evaluate their stability to Phase I metabolism by hepatic enzymes. Each test compound was incubated at μM concentration (50 μM when the samples were analysed by UV/HPLC, 1 or 2 μM when the samples were analysed by LC-MS/MS) with S9 fraction (protein content 2 mg/m L) in 100 mM phosphate buffer (pH 7.4), 3.3 mM MgCl2 and 1.3 mM NADPH for 0, 10, 30, 60 and 90 minutes at 37° C. in a thermostated oscillating bath. The reaction was stopped placing samples on ice bath and adding acidified acetonitrile. After centrifugation (10 minutes at 14000 rpm) an aliquot of the supernatant was diluted with water, filtered with 0.45 μm regenerated cellulose syringe filters and injected in HPLC-UV or in LC-MS/MS. The percentage of the remaining amount at the various incubation times with respect to the initial amount were calculated.

HDAC4, sequence (P56524 whole entry): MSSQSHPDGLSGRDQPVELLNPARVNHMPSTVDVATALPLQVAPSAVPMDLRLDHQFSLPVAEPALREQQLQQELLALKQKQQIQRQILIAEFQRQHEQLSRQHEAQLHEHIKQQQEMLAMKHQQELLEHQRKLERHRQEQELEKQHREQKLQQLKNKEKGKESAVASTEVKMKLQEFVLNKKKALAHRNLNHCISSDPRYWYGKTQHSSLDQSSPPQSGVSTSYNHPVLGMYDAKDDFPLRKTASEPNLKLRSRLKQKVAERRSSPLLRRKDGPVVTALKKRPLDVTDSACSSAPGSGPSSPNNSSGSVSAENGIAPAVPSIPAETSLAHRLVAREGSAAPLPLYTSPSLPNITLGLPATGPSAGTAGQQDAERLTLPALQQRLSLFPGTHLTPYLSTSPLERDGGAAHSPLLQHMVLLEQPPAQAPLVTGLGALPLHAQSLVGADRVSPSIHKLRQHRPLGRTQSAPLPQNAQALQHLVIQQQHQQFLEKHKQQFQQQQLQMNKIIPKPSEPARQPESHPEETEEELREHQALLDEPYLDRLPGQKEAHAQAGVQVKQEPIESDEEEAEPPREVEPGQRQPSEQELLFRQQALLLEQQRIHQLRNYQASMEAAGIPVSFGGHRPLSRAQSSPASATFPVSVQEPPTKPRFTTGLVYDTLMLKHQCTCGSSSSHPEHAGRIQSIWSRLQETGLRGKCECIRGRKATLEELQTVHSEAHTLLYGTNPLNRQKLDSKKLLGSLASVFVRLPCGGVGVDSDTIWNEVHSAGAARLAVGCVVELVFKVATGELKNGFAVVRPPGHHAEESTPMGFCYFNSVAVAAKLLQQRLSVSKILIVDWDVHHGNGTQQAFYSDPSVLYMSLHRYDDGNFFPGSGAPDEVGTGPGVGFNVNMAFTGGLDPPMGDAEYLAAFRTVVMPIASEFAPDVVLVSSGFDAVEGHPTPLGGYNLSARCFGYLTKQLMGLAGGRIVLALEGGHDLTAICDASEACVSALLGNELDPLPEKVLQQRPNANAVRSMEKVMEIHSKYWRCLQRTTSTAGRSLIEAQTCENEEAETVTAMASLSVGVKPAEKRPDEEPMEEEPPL
HDAC7, sequence (Q8WUI4 whole entry): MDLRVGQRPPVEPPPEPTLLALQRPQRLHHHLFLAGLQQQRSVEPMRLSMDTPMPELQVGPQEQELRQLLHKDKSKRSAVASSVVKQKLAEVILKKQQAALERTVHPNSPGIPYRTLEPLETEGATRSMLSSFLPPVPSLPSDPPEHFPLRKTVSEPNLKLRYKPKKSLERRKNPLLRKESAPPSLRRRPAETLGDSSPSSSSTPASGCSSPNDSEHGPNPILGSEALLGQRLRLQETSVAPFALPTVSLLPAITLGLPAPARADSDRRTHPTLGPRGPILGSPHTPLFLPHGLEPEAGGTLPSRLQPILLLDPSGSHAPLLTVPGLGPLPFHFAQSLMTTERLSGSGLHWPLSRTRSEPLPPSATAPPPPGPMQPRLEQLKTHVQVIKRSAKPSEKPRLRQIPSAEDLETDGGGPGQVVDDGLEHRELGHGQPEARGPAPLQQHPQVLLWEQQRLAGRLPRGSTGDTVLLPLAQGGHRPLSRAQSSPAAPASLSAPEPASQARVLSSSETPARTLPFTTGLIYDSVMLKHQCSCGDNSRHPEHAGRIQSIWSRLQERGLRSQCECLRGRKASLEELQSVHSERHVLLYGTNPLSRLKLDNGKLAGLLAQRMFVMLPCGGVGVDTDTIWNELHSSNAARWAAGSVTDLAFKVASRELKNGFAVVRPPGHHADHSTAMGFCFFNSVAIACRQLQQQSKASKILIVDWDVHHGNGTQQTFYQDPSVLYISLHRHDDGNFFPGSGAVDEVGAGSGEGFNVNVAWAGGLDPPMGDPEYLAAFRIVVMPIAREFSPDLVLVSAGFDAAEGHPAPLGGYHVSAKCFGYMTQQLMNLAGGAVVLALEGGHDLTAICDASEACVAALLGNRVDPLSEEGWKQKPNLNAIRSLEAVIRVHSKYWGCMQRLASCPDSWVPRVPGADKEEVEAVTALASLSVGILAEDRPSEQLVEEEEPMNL
recombinant human HDAC6, sequence (Q9UBN7 whole entry): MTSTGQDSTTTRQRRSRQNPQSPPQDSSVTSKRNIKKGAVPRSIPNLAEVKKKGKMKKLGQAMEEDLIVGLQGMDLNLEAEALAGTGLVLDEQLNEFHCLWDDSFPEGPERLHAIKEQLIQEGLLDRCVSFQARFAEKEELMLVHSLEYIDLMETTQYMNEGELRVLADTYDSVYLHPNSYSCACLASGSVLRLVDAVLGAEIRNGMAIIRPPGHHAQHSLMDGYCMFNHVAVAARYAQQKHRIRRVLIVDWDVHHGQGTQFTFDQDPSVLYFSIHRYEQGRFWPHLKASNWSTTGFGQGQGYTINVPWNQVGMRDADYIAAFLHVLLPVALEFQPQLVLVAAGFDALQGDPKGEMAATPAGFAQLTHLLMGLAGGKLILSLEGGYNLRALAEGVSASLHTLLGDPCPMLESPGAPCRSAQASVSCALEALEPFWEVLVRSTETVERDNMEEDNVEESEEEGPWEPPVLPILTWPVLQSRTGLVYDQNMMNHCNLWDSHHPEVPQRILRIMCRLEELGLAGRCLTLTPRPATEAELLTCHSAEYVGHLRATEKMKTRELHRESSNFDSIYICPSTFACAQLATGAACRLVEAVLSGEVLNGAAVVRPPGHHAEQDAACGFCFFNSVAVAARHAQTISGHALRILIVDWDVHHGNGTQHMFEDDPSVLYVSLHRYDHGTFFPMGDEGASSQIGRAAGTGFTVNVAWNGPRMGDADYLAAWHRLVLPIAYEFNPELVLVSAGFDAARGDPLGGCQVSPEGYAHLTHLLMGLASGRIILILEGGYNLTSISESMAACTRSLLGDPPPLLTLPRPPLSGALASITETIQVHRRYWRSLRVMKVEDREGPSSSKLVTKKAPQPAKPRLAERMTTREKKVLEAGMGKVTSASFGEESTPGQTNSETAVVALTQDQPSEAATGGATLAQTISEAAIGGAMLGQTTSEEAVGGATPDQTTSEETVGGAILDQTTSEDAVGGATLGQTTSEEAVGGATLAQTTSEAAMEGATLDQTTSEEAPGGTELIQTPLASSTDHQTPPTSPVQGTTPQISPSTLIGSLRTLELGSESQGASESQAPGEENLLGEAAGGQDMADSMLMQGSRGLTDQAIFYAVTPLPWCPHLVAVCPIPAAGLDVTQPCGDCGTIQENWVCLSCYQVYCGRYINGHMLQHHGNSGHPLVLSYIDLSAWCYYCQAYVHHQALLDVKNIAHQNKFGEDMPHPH
HDAC8, sequence (Q9BY41 whole entry): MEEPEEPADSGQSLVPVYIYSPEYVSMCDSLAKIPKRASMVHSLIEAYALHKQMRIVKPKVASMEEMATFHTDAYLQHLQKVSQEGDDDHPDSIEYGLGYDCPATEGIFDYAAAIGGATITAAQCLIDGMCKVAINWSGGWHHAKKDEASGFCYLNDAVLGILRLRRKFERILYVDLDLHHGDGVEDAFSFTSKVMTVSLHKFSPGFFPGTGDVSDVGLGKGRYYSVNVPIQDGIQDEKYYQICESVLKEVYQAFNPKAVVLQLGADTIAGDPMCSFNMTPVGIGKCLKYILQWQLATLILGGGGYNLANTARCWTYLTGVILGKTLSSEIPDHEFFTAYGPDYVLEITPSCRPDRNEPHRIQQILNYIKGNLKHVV

On to `Nc1ccc(-c2cn(Cc3ccc(-c4nnc(C(F)F)o4)cn3)cn2)cn1` [compound 12, 5-(1-((5-(5-(difluoromethyl)-1,3,4-oxadiazol-2-yl)pyridin-2-yl)methyl)-1H-imidazol-4-yl)pyridin-2-amine], for which the concentration for half-maximal inhibition (IC50) is 0.02 µM at recombinant human HDAC6; over 200 µM at recombinant human HDAC1; over 30 µM against HDAC2; over 30 µM on HDAC3; over 30 µM against HDAC4; over 30 µM against HDAC5. For the same compound, the IC50 on HDAC7 was over 30 µM; at HDAC8, over 200 µM; against HDAC9, over 30 µM; on HDAC10, over 30 µM; against HDAC11, over 30 µM. Also, in series [1], the fold induction at 1 µM came out at 11. The “residual percentage in RAT PLASMA” value in the series “Stability in rat plasma” turned out to be 86%. Further, the “residual percentage in HUMAN PLASMA” value in series [2] was found to be 82%. For the same compound, the “residual percentage in RAT S9 FRACTION” value in series [3] turned out to be 98%. The “residual percentage in HUMAN S9 FRACTION” value in series [4] is given as 96%.
For `O=C(Nc1cc(-c2nnn(Cc3ccc(-c4nnc(C(F)F)o4)cn3)n2)ccc1O)N1CCOCC1` [compound 2, N-(5-(2-((5-(5-(difluoromethyl)-1,3,4-oxadiazol-2-yl)pyridin-2-yl)methyl)-2H-tetrazol-5-yl)-2-hydroxyphenyl)morpholine-4-carboxamide], the concentration for half-maximal inhibition (IC50) at recombinant human HDAC6 was 0.01 µM; on recombinant human HDAC1, over 200 µM; at HDAC2, over 30 µM; against HDAC3 it was over 30 µM; at HDAC4, over 30 µM; on HDAC5, over 30 µM. The IC50 at HDAC7 was over 30 µM; at HDAC8, over 200 µM; on HDAC9, over 30 µM; against HDAC10, over 30 µM; against HDAC11 it was over 30 µM. Besides, the fold induction at 1 µM in series [1] is 26. For the same compound, the “residual percentage in RAT PLASMA” value in the series “Stability in rat plasma” worked out at 90%. For the same compound, the “residual percentage in HUMAN PLASMA” value in [2] worked out at 87%. Besides, the “residual percentage in RAT S9 FRACTION” value in series [3] worked out at 61%. In addition, the “residual percentage in HUMAN S9 FRACTION” value in series [4] turned out to be 70%.
Consider `O=C1NCc2ccc(-c3nnn(Cc4ccc(-c5nnc(C(F)F)o5)cn4)n3)cc21` [compound 4, 6-(2-((5-(5-(difluoromethyl)-1,3,4-oxadiazol-2-yl)pyridin-2-yl)methyl)-2H-tetrazol-5-yl)isoindolin-1-one], for which the IC50 on recombinant human HDAC6 was 0.012 µM; at recombinant human HDAC1 it was over 200 µM; against HDAC2, over 30 µM; on HDAC3 it was over 30 µM; on HDAC4, over 30 µM; against HDAC5, over 30 µM. The IC50 on HDAC7 was over 30 µM; against HDAC8 it was over 200 µM; against HDAC9 it was over 30 µM; against HDAC10 it was over 30 µM; against HDAC11, over 30 µM. For the same compound, in [1], the fold induction at 1 µM amounted to 13. For the same compound, in “Stability in rat plasma”, the “residual percentage in RAT PLASMA” value worked out at 78%. Besides, the “residual percentage in HUMAN PLASMA” value in series [2] worked out at 80%. For the same compound, the “residual percentage in RAT S9 FRACTION” value in [3] is recorded as 77%. The “residual percentage in HUMAN S9 FRACTION” value in series [4] amounted to 77%.
With `FC(F)c1nnc(-c2ccc(Cn3cnc(-c4ccc(NC5=NCCN5)cc4)c3)cc2)o1` [compound 22, N-(4-(1-(4-(5-(difluoromethyl)-1,3,4-oxadiazol-2-yl)benzyl)-1H-imidazol-4-yl)phenyl)-4,5-dihydro-1H-imidazol-2-amine], the IC50 on recombinant human HDAC6 is 0.017 µM; at recombinant human HDAC1 it was over 200 µM; on HDAC2 it was over 30 µM; on HDAC3, over 30 µM; against HDAC4, over 30 µM; against HDAC5, over 30 µM. For the same compound, the IC50 was over 30 µM against HDAC7; over 200 µM on HDAC8; over 30 µM at HDAC9; over 30 µM against HDAC10; over 30 µM against HDAC11. Moreover, in [1], the fold induction at 1 µM was determined as 17. Also, the “residual percentage in RAT PLASMA” value in “Stability in rat plasma” turned out to be 96%. The “residual percentage in HUMAN PLASMA” value in series [2] amounted to 92%. Besides, in series [3], the “residual percentage in RAT S9 FRACTION” value is reported as 98%. Besides, the “residual percentage in HUMAN S9 FRACTION” value in [4] is reported as 88%.
With `FC(F)c1nnc(-c2ccc(Cn3cc(-c4ccc(NC5=NCCN5)cc4)nn3)cc2)o1` [compound 10, N-(4-(1-(4-(5-(difluoromethyl)-1,3,4-oxadiazol-2-yl)benzyl)-1H-1,2,3-triazol-4-yl)phenyl)-4,5-dihydro-1H-imidazol-2-amine], the IC50 is 0.016 µM on recombinant human HDAC6; over 200 µM on recombinant human HDAC1; over 30 µM at HDAC2; over 30 µM against HDAC3; over 30 µM at HDAC4; over 30 µM against HDAC5. Further, the IC50 on HDAC7 is over 30 µM; at HDAC8, 29.5 µM; at HDAC9, over 30 µM; against HDAC10, over 30 µM; on HDAC11 it was over 30 µM. Moreover, the fold induction at 1 µM in [1] stood at 11. Also, in “Stability in rat plasma”, the “residual percentage in RAT PLASMA” value amounted to 97%. For the same compound, in [2], the “residual percentage in HUMAN PLASMA” value is given as 89%. Moreover, the “residual percentage in RAT S9 FRACTION” value in series [3] was 95%. Moreover, in [4], the “residual percentage in HUMAN S9 FRACTION” value is 95%.
